Measurements: patent publication US20260048047A1, “SMALL-MOLECULE ACTIVATORS OF MYCOBACTERIUM TUBERCULOSIS ADENYLYL CYCLASE” (priority 2022, published 2026)

Columns and labels:
M. tuberculosis = experiment: Extracellular activity against M. tuberculosis in cholesterol media (Alamar Blue reduction assay); type: cell-based, Mycobacterium tuberculosis
Rv1625c = type: cell-based, Mycobacterium tuberculosis

## Cc1nonc1CC(=O)N1CCC(n2nnc(-c3ccc(F)cc3)n2)CC1 [Compound V-59, 1-(4-(5-(4-fluorophenyl)-2H-tetrazol-2-yl)piperidin-1-yl)-2-(4-methyl-1,2,5-oxadiazol-3-yl)ethan-1-one]
M. tuberculosis
  Inhibition of ΔRv1625c strain in cholesterol media: refractory
M. tuberculosis; 2×rv1625c vs WT, 7H12+cholesterol
  Fold greater susceptibility of rv1625c overexpression strain (2×rv1625c) than WT: ~15 fold
Rv1625c
  cAMP induction in ΔRv1625c mutant: did not affect

## Cn1ncnc1CC(=O)N1CCC(c2nc(-c3ccc(Cl)c(Cl)c3)no2)CC1 [mCLB073, 1-(4-(3-(3,4-dichlorophenyl)-1,2,4-oxadiazol-5-yl)-1-piperidinyl)-2-(2-methyl-2H-1,2,4-triazol-3-yl)-1-ethanone]
M. tuberculosis
  Inhibition of ΔRv1625c strain in cholesterol media: refractory
